Where two headings read alike, the source gives them in different places.
What was measured:
human SV2A [1] = target: T1, human SV2A (Homo sapiens, UniProt Q7L0J3); assay: biochemical
Protocol: Competition binding assays were performed twice independently using separate assay materials, with 4 technical replicates from each independent assay. […] Duplicate samples of human frontal cortex gray matter were homogenized in PBS buffer (10 mg/mL) for storage at − 80 °C and were diluted to a stock concentration of 4 mg/mL in PBS on the day of the assays. […] Working stocks of brain homogenate (100 µL; final concentration of 2 mg/mL), blocking ligands (20 µL), and radioligand (80 µL; final concentration 2.5 nM) were combined in quadruplicate wells of 96-well plates, sealed, and incubated at room temperature for 90 min on an orbital shaker set to 250 RPM. Reaction plates were filtered, rapidly washed with cold PBS, and dried. Forty microliters of Microscint-20 scintillation cocktail (Perkin-Elmer) was added to each well, and the plate was counted using a Microbeta2 plate reader (Perkin-Elmer). GraphPad Prism was used for curve fitting using the one-site Ki model.

[2] = Adverse event observation during PET imaging; assay type: in vivo, rhesus monkeys; conditions: tracer at microdose 0.646–0.926 µg; LEV i.v. 30 mg/kg
Protocol: (§1) Four monkeys were studied.
Adverse event was also not observed following LEV (i.v., 30 mg/kg) administration, including the displacement and blocking scan.

SV2A = SV2A (Macaca mulatta, UniProt H9EQH8); assay: LEV blocking and displacement PET scans, Lassen plot; assay type: in vivo, rhesus monkeys (Macaca mulatta); parameters: from tissue; host or cells: brain of living rhesus monkeys (in vivo PET); conditions: LEV 30 mg/kg i.v., Lassen plot with [^18F]SDM-16
Sequence of SV2A (H9EQH8 1-742): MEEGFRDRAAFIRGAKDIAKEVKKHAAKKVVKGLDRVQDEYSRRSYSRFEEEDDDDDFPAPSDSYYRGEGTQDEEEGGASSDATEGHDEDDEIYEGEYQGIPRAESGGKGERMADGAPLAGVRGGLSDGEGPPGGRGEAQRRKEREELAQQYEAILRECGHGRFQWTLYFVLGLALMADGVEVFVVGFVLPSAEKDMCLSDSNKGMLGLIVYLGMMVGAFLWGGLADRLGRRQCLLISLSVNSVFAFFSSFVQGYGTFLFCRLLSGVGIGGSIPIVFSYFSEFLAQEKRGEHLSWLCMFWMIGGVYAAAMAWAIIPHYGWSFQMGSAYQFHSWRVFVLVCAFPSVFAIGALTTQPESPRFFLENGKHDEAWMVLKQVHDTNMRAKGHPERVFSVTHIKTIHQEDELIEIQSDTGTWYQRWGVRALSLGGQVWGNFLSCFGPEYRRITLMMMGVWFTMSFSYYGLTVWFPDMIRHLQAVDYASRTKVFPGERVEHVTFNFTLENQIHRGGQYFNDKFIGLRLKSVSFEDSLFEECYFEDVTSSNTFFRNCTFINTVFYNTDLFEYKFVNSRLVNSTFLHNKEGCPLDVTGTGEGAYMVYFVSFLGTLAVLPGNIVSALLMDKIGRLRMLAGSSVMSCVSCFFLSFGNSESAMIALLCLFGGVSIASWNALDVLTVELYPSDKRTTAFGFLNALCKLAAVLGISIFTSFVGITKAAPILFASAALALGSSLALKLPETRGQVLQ
Text: as §1
To examine the in vivo binding specificity, SV2A occupancy, and the extent of nonspecific binding in the monkey brain, we performed the Lassen plot analysis using data from the two baseline scans and one blocking scan in the same monkey.

human SV2A [3] = target: T1, human SV2A; parameters: Duplicate samples of human frontal cortex gray matter were homogenized in PBS buffer; from tissue; host or cells: human frontal cortex gray matter homogenate; conditions: other SV2A ligands; cited from earlier work

T1 sequence (Q7L0J3 whole entry): as the sequence (H9EQH8 1-742) above, with S64G, V572I counted along it

SMILES | Ki (human SV2A [1]) [nM] | Ki (human SV2A [1]; [^3H]UCB-J, human frontal cortex homogenate) [nM] | adverse events [2] | SV2A occupancy (SV2A) [%] | Ki (human SV2A [3]) [nM]
Cc1nccn1CN1CC(c2cc(F)cc(F)c2)CC1=O (racemic) [Rac SDM-16, 4-(3,5-difluorophenyl)-1-((2-methyl-1H-imidazol-1-yl)methyl)pyrrolidin-2-one] | 3.7 | – | – | – | –
Cc1nccn1CN1C[C@H](c2cc(F)cc(F)c2)CC1=O [(S)-SDM-16] | – | 25.5 | – | – | –
CC[C@@H](C(N)=O)N1CCCC1=O [Levetiracetam, levetiracetam, reference compound] | – | – | not observed | 79 | 2100
Cc1nccn1CN1C[C@@H](c2cc(F)cc(F)c2)CC1=O [SDM-16] | 0.9 | – | no adverse events were observed | – | –
